According to US20080194638A1, “BIOAVAILABLE FORMULATIONS OF HETEROCYCLIC COMPOUNDS” (Forest Laboratories Holdings Limited, priority 2007, published 2008):
Counter-ions that a name gives are not always drawn.

Experiment: Solubility of crystalline forms
Type: physicochemical
Description: wherein R^1-R^4, P, X, Y, m, n and Ar are as defined therein. One such compound is N-(3,5-dichloropyrid-4-yl)-4-difluoromethoxy-8-methanesulfonamido-dibenzo[b,d]furan-1-carboxamide, the International nonproprietary name for which is oglemilast. The pharmacology and safety profiles for oglemilast have been described in, for example, Eur. Respir. J. (2004) 24 (Suppl 48): Abst 1391. Both US 2005/0027129 and International Publication No. WO 2006/040652 disclose methods for preparing oglemilast and pharmaceutically acceptable salts thereof, such as the sodium salt (see, e.g., Examples 30 and 31 of US publication No. 2005/0027129) and generically disclose formulations of oglemilast and the corresponding sodium salt. In these formulations, the active ingredient is present substantially in a crystalline form. […] In an attempt to increase the bioavailability of formulations containing, e.g., oglemilast, salt forms of the active ingredient have typically been used.

solubility | Compound
approximately 140 μg/mL | CS(=O)(=O)Nc1ccc2oc3c(OC(F)F)ccc(C(=O)Nc4c(Cl)cncc4Cl)c3c2c1 [crystalline sodium salt of oglemilast]
approximately 0.2 μg/mL | CS(=O)(=O)Nc1ccc2oc3c(OC(F)F)ccc(C(=O)Nc4c(Cl)cncc4Cl)c3c2c1 [crystalline oglemilast, N-(3,5-dichloropyrid-4-yl)-4-difluoromethoxy-8-methanesulfonamido-dibenzo[b,d]furan-1-carboxamide]
